Reference: ChEMBL document CHEMBL5523727, “Discovery of KT-413, a Targeted Protein Degrader of IRAK4 and IMiD Substrates Targeting MYD88 Mutant Diffuse Large B-Cell Lymphoma” (J Med Chem, 2024)

Columns and labels:
[1] = target: Protein cereblon/Interleukin-1 receptor-associated kinase 4 (Homo sapiens, UniProt Q9NWZ3+Q96SW2); assay: PROTAC activity at CRBN/IRAK4 in human OCI-Ly10 cells assessed as induction of IRAK4 degradation measured after 24 hrs by MSD assay; format: cell-based
Cereblon/Ikaros = Cereblon/Ikaros (Homo sapiens, UniProt Q96SW2+Q13422); assay: PROTAC activity at CRBN/Ikaros in human OCI-Ly10 cells assessed as induction of Ikaros degradation measured after 24 hrs by MSD assay; format: cell-based
Protein cereblon = Protein cereblon (Homo sapiens, UniProt Q96SW2); assay: Binding affinity to CRBN (unknown origin) by HTRF assay
OCI-Ly10 = assay: Antiproliferative activity against human OCI-Ly10 cells measured after 4 days by CellTiter-Glo Luminescent Cell Viability Assay; format: functional, cell-based
[2] = Passive permeability of the compound in wild type MDCK cells across apical to basolateral side at 1 uM measured for 120 mins by LC-MS/MS analysis; format: ADME, cell-based, Canis lupus familiaris; conditions: dog, read-out: permeability
[3] = Metabolic stability in human liver microsomes assessed as intrinsic clearance at 1 uM measured upto 60 mins in presence of NADPH by UPLC/MS-MS analysis; format: ADME, Microsome; conditions: read-out: CLH
[4] = Metabolic stability in rat liver microsomes assessed as intrinsic clearance at 1 uM measured upto 60 mins in presence of NADPH by UPLC/MS-MS analysis; format: ADME, Microsome; conditions: read-out: CLH
[5] = Volume of distribution at steady state in rat at 2 mg/kg, iv by LC-MS/MS analysis; format: ADME, organism-based; conditions: in vivo, read-out: Vdss
[6] = Half life in rat at 2 mg/kg, iv by LC-MS/MS analysis; format: ADME, organism-based; conditions: in vivo
[7] = AUC in rat at 10 mg/kg, po by LC-MS/MS analysis; format: ADME, organism-based; conditions: in vivo
[8] = Oral bioavailability in rat at 10 mg/kg by LC-MS/MS analysis; format: ADME, organism-based; conditions: in vivo; for F: po, 10 mg/kg
[9] = target: Protein cereblon/Interleukin-1 receptor-associated kinase 4 (Homo sapiens, UniProt Q96SW2+Q9NWZ3); assay: Binding affinity to CRBN/IRAK4 […] assessed as dissociation constant by DiscoverX Kd Elect assay
[10] = Clearance in rat at 2 mg/kg, iv by LC-MS/MS analysis; format: ADME, organism-based; conditions: in vivo

Sequence of Protein cereblon (Q96SW2 whole entry): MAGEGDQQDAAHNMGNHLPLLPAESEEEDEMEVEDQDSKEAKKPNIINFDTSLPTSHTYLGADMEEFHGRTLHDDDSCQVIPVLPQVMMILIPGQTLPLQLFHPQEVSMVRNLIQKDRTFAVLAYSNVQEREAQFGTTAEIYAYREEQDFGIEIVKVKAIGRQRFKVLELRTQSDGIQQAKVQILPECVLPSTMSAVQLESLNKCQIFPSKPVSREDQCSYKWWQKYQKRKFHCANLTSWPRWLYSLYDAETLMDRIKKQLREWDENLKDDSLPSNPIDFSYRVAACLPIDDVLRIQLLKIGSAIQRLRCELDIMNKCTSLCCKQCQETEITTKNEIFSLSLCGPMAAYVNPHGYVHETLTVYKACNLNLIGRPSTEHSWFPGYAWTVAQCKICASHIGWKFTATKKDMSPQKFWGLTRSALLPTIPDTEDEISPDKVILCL
Sequence of Cereblon/Ikaros (Q96SW2 whole entry): as above
Sequence of Cereblon/Ikaros (Q13422 whole entry): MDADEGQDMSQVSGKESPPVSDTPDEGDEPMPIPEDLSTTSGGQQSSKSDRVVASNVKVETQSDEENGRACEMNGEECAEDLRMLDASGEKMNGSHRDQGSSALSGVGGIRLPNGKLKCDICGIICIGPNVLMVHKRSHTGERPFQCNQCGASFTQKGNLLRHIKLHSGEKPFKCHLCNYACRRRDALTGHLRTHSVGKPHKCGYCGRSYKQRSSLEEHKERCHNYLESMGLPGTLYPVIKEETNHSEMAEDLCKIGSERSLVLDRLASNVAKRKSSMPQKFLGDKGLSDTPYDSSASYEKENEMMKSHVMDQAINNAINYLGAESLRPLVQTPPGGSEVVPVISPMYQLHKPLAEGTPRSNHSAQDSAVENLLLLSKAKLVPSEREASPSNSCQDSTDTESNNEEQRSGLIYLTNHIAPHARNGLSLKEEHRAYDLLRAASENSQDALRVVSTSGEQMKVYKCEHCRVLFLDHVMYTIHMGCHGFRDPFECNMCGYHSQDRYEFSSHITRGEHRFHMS
Sequence of Protein cereblon/Interleukin-1 receptor-associated kinase 4 (Homo sapiens, UniProt Q9NWZ3+Q96SW2) (Q9NWZ3 whole entry): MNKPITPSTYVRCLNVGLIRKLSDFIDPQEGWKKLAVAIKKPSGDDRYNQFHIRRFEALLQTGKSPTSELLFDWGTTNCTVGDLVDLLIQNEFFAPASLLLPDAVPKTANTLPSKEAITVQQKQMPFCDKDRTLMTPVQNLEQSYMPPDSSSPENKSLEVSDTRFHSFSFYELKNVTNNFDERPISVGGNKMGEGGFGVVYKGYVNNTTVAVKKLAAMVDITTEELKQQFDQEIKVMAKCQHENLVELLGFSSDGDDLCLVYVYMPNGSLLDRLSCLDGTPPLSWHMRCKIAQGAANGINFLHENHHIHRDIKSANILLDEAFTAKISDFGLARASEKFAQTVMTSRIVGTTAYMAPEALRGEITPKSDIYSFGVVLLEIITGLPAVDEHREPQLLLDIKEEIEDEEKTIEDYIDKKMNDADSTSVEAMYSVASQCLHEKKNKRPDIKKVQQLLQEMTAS
Sequence of Protein cereblon/Interleukin-1 receptor-associated kinase 4 (Homo sapiens, UniProt Q9NWZ3+Q96SW2) (Q96SW2 whole entry): as the sequence (Q96SW2 whole entry) above
Sequence of Protein cereblon/Interleukin-1 receptor-associated kinase 4 (Homo sapiens, UniProt Q96SW2+Q9NWZ3) (Q9NWZ3 whole entry): as the sequence (Q9NWZ3 whole entry) above
Sequence of Protein cereblon/Interleukin-1 receptor-associated kinase 4 (Homo sapiens, UniProt Q96SW2+Q9NWZ3) (Q96SW2 whole entry): as the sequence (Q96SW2 whole entry) above

Compound	DC50 [1]	DC50 (Cereblon/Ikaros)	IC50 (Protein cereblon)	IC50 (OCI-Ly10; Homo sapiens, OCI-Ly10, 96 h)	Papp A→B at 2 h, 1 µM [2]	microsomal CLint at 1 µM [3]	microsomal CLint at 1 µM [4]	Vd [5]	half-life [6]	AUC ([7]; po, 10 mg/kg)	F [8]	IC50 (OCI-Ly10; oci-ly10)	Kd [9]	clearance [10]	AUC ([7]; read-out: AUC)	bioavailability [8]
COc1cc2nn([C@H]3CC[C@H](CN(C)CCCO[C@H]4C[C@H](Nc5cccc6c5C(=O)N(C5CCC(=O)NC5=O)C6=O)C4)CC3)cc2cc1NC(=O)c1cccc(C(F)(F)F)n1 (some centres not stated)	29 nM	28 nM	23 nM	360 nM	2.4 ×10⁻⁶ cm/s	19 µL/min/mg	10 µL/min/mg	–	–	–	–	–	–	–	–	–
COc1cc2nn([C@H]3CC[C@H](CN4CCC5(CC4)CC(CNc4cccc6c4C(=O)N(C4CCC(=O)NC4=O)C6=O)C5)CC3)cc2cc1NC(=O)c1cccc(C(F)(F)F)n1 (some centres not stated)	16 nM	43 nM	66 nM	84 nM	1.3 ×10⁻⁶ cm/s	2.7 µL/min/mg	1.6 µL/min/mg	11 L/kg	25 h	1.88 µM·h	11%	–	–	–	–	–
CN(CCCO[C@H]1C[C@H](Nc2cccc3c2C(=O)N(C2CCC(=O)NC2=O)C3=O)C1)C[C@H]1CC[C@H](n2cc3cc(NC(=O)c4cccc(C(F)(F)F)n4)c(C(F)F)cc3n2)CC1 (some centres not stated)	13 nM	17 nM	24 nM	46 nM	0.76 ×10⁻⁶ cm/s	25 µL/min/mg	32 µL/min/mg	–	–	–	–	–	–	–	–	–
O=C1CCC(N2C(=O)c3cccc(NCC4CC5(CCN(C[C@H]6CC[C@H](n7cc8cc(NC(=O)c9cccc(C(F)(F)F)n9)c(C(F)F)cc8n7)CC6)CC5)C4)c3C2=O)C(=O)N1 (some centres not stated)	56 nM	69 nM	58 nM	142 nM	2.7 ×10⁻⁶ cm/s	< 1.8 µL/min/mg	< 1.8 µL/min/mg	11 L/kg	29 h	1.5 µM·h	16%	–	–	–	–	–
CN(C[C@H]1CC[C@H](n2cc3cc(NC(=O)c4cccc(C(F)(F)F)n4)c(C(C)(C)O)cc3n2)CC1)[C@H]1CC[C@@]2(CC1)C[C@H](Nc1cccc3c1C(=O)N(C1CCC(=O)NC1=O)C3=O)C2 (some centres not stated)	13 nM	19 nM	5 nM	–	2.9 ×10⁻⁶ cm/s	< 1.8 µL/min/mg	< 1.8 µL/min/mg	–	–	–	–	134 nM	–	–	–	–
CN(C[C@H]1CC[C@H](n2cc3cc(NC(=O)c4cccc(C(F)(F)F)n4)c(C(C)(C)O)cc3n2)CC1)[C@H]1CC[C@]2(CC1)C[C@H](Nc1cccc3c1C(=O)N(C1CCC(=O)NC1=O)C3=O)C2 (some centres not stated)	6 nM	57 nM	8 nM	78 nM	2.1 ×10⁻⁶ cm/s	< 1.8 µL/min/mg	< 1.8 µL/min/mg	–	–	–	–	–	–	–	–	–
Nc1cccc2c1C(=O)N(C1CCC(=O)NC1=O)C2=O (configuration not stated) [POMALIDOMIDE]	–	–	–	1400 nM	–	–	–	–	–	–	–	–	–	–	–	–
CC(C)(O)c1cc2nn(CCCCCCCCCNc3cccc4c3C(=O)N(C3CCC(=O)NC3=O)C4=O)cc2cc1NC(=O)c1cccc(C(F)(F)F)n1 (configuration not stated)	3300 nM	55 nM	> 1100 nM	588 nM	–	–	–	–	–	–	–	–	320 nM	–	–	–
CC(C)(O)c1cc2nn([C@H]3CC[C@H](CN4CCC5(CC4)CC(Nc4cccc6c4C(=O)N(C4CCC(=O)NC4=O)C6=O)C5)CC3)cc2cc1NC(=O)c1cccc(C(F)(F)F)n1 (some centres not stated)	3 nM	27 nM	10 nM	25 nM	2.8 ×10⁻⁶ cm/s	1.2 µL/min/mg	2.7 µL/min/mg	13 L/kg	12 h	–	–	–	–	13 mL/min/kg	1.4 µM·h	17%
CN(CCCO[C@H]1C[C@H](Nc2cccc3c2C(=O)N(C2CCC(=O)NC2=O)C3=O)C1)C[C@H]1CC[C@H](n2cc3cc(NC(=O)c4cccc(C(F)(F)F)n4)ccc3n2)CC1 (some centres not stated)	33 nM	10 nM	24 nM	75 nM	5.5 ×10⁻⁶ cm/s	102 µL/min/mg	11 µL/min/mg	–	–	–	–	–	–	–	–	–
COc1cc2nn([C@H]3CC[C@H](CN4CC5(CC(CCNc6cccc7c6C(=O)N(C6CCC(=O)NC6=O)C7=O)C5)C4)CC3)cc2cc1NC(=O)c1cccc(C(F)(F)F)n1 (some centres not stated)	8 nM	9 nM	27 nM	48 nM	1 ×10⁻⁶ cm/s	0.79 µL/min/mg	1.6 µL/min/mg	29 L/kg	17 h	0.13 µM·h	4.2%	–	–	–	–	–
CC(C)(O)c1cc2nn(CCCCCNCCCNc3cccc4c3C(=O)N(C3CCC(=O)NC3=O)C4=O)cc2cc1NC(=O)c1cccc(C(F)(F)F)n1 (configuration not stated)	128 nM	17 nM	79 nM	125 nM	0.42 ×10⁻⁶ cm/s	–	–	–	–	–	–	–	2.2 nM	–	–	–
